Columns and labels:
BT-474 Tam1 [1] = experiment: drug sensitivity score (DSS) (DSS (dimensionless)); higher = more sensitive; extreme values may be limits of the assay; conditions: 4-OH-tamoxifen in medium 1 µM; 72 h
Outline: (§1)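 CellTiter-Glo viability was the readout, taken on a PHERAstar and normalised to vehicle-only and positive controls. It was measured after breast cancer cell lines and their resistant derivatives spent 72 h at 37 °C in 384-well plates containing library drugs at five concentrations spanning a 10 000-fold range, with 1 μM of the selecting drug in the medium of resistant lines. From logistic dose–response fits in the Breeze pipeline came drug sensitivity score, relative IC50 (curve midpoint) and top-dose inhibition.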

BT-474 Tam2 [2] = experiment: as above; conditions: 4-OH-tamoxifen in medium 1 µM; 72 h
Outline: as §1

BT-474 [3] = experiment: as above; conditions: 72 h
Outline: as §1

MCF-7 Tam1 [4] = experiment: as above; conditions: 4-OH-tamoxifen in medium 1 µM; 72 h
Outline: as §1

MCF-7 [5] = experiment: as above; conditions: 72 h
Outline: as §1

T-47D Tam1 [6] = experiment: as above; conditions: 4-OH-tamoxifen in medium 1 µM; 72 h
Outline: as §1

T-47D Tam2 [7] = experiment: as above; conditions: 4-OH-tamoxifen in medium 1 µM; 72 h
Outline: as §1

T-47D [8] = experiment: as above; conditions: 72 h
Outline: as §1

ZR-75-1 Tam1 [9] = experiment: as above; conditions: 4-OH-tamoxifen in medium 1 µM; 72 h
Outline: as §1

ZR-75-1 Tam2 [10] = experiment: as above; conditions: 4-OH-tamoxifen in medium 1 µM; 72 h
Outline: as §1

ZR-75-1 [11] = experiment: as above; conditions: 72 h
Outline: as §1

BT-474 Tam1 [12] = experiment: relative IC50 (midpoint of fitted logistic curve, plateau may be below 50% inhibition; CellTiter-Glo viability); higher = less potent; conditions: 4-OH-tamoxifen in medium 1 µM; 72 h
Outline: as §1

BT-474 Tam2 [13] = experiment: as above; conditions: 4-OH-tamoxifen in medium 1 µM; 72 h
Outline: as §1

BT-474 [14] = experiment: as above; conditions: 72 h
Outline: as §1

MCF-7 Tam1 [15] = experiment: as above; conditions: 4-OH-tamoxifen in medium 1 µM; 72 h
Outline: as §1

MCF-7 [16] = experiment: as above; conditions: 72 h
Outline: as §1

T-47D Tam1 [17] = experiment: as above; conditions: 4-OH-tamoxifen in medium 1 µM; 72 h
Outline: as §1

T-47D Tam2 [18] = experiment: as above; conditions: 4-OH-tamoxifen in medium 1 µM; 72 h
Outline: as §1

T-47D [19] = experiment: as above; conditions: 72 h
Outline: as §1

ZR-75-1 Tam1 [20] = experiment: as above; conditions: 4-OH-tamoxifen in medium 1 µM; 72 h
Outline: as §1

ZR-75-1 Tam2 [21] = experiment: as above; conditions: 4-OH-tamoxifen in medium 1 µM; 72 h
Outline: as §1

ZR-75-1 [22] = experiment: as above; conditions: 72 h
Outline: as §1

Row | Structure (SMILES) | drug sensitivity score (BT-474 Tam1 [1]) | drug sensitivity score (BT-474 Tam2 [2]) | drug sensitivity score (BT-474 [3]; 4-OH-tamoxifen in medium 0 µM) | drug sensitivity score (BT-474 [3]; 4-OH-tamoxifen in medium 1 µM) | drug sensitivity score (MCF-7 Tam1 [4]) | drug sensitivity score (MCF-7 [5]; 4-OH-tamoxifen in medium 0 µM) | drug sensitivity score (MCF-7 [5]; 4-OH-tamoxifen in medium 1 µM) | drug sensitivity score (T-47D Tam1 [6]) | drug sensitivity score (T-47D Tam2 [7]) | drug sensitivity score (T-47D [8]; 4-OH-tamoxifen in medium 0 µM) | drug sensitivity score (T-47D [8]; 4-OH-tamoxifen in medium 1 µM) | drug sensitivity score (ZR-75-1 Tam1 [9]) | drug sensitivity score (ZR-75-1 Tam2 [10]) | drug sensitivity score (ZR-75-1 [11]; 4-OH-tamoxifen in medium 0 µM) | drug sensitivity score (ZR-75-1 [11]; 4-OH-tamoxifen in medium 1 µM) | relative IC50 (BT-474 Tam1 [12]) [µM] | relative IC50 (BT-474 Tam2 [13]) [µM] | relative IC50 (BT-474 [14]; 4-OH-tamoxifen in medium 0 µM) [µM] | relative IC50 (BT-474 [14]; 4-OH-tamoxifen in medium 1 µM) [µM] | relative IC50 (MCF-7 Tam1 [15]) [µM] | relative IC50 (MCF-7 [16]; 4-OH-tamoxifen in medium 0 µM) [µM] | relative IC50 (MCF-7 [16]; 4-OH-tamoxifen in medium 1 µM) [µM] | relative IC50 (T-47D Tam1 [17]) [µM] | relative IC50 (T-47D Tam2 [18]) [µM] | relative IC50 (T-47D [19]; 4-OH-tamoxifen in medium 0 µM) [µM] | relative IC50 (T-47D [19]; 4-OH-tamoxifen in medium 1 µM) [µM] | relative IC50 (ZR-75-1 Tam1 [20]) [µM] | relative IC50 (ZR-75-1 Tam2 [21]) [µM] | relative IC50 (ZR-75-1 [22]; 4-OH-tamoxifen in medium 0 µM) [µM] | relative IC50 (ZR-75-1 [22]; 4-OH-tamoxifen in medium 1 µM) [µM]
1 | O=C(O)C(=O)O.[NH-][C@@H]1CCCC[C@H]1[NH-].[Pt+2] [Oxaliplatin] | 0 | 0 | 0 | 0 | 0 | 0 | 0 | 0 | 0 | 0 | 0 | 0 | 0 | 0 | 0 | > 10 | > 10 | > 10 | > 10 | > 10 | > 10 | > 10 | > 10 | > 10 | > 10 | > 10 | > 10 | > 10 | > 10 | > 10
2 | C[C@]12CC[C@@H]3c4ccc(OC(=O)N(CCCl)CCCl)cc4CC[C@H]3[C@@H]1CC[C@@H]2O [Estramustine] | 0 | 0 | 0 | 0 | 0 | 0 | 0 | 0 | 0 | 0 | 0 | 0 | 0 | 0 | 0 | > 990 | > 990 | > 990 | > 990 | > 990 | > 990 | > 990 | > 990 | > 990 | > 990 | > 990 | > 990 | > 990 | > 990 | > 990
3 | CC[C@@]1(O)C(=O)OCc2c1cc1n(c2=O)Cc2cc3ccccc3nc2-1 [Camptothecin] | 0 | 0 | 0 | 0 | 3 | 23 | 8.74 | 15.6 | 4.93 | 15.6 | 3.21 | 12.4 | 13.3 | 13.9 | 7.82 | > 5 | > 5 | > 5 | > 5 | 1.35 | 0.0326 | 0.649 | 0.0326 | 0.302 | 0.0442 |  | 0.0497 | 0.0598 | 0.0384 | 0.0956
4 | O=C(O)CCCc1ccc(N(CCCl)CCCl)cc1 [Chlorambucil] | 0 | 0 | 0 | 0 | 0 | 0 | 0 | 0 | 0 | 0 | 0 | 0 | 0 | 0 | 0 | > 10 | > 10 | > 10 | > 10 | > 10 | > 10 | > 10 | > 10 | > 10 | > 10 | > 10 | > 10 | > 10 | > 10 | > 10

From the supplement of paper PMC4932681
